System: KURAMOCHI
Assay: cancer cell viability relative to untreated control; higher = less cytotoxic
Conditions: 72 h
Method: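 KURAMOCHI or OVCAR8 cells were grown in monoculture or in co-culture with WI38 or patient-derived 030F fibroblasts and treated for 72 h with a dose matrix of carboplatin combined with birinapant or vorinostat (doses in nM). Cancer cell viability was measured by CK8/18 immunofluorescence imaging and expressed as % of untreated control, given as mean with SD.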

O=C(O)C1(C(=O)O)CCC1.[NH2-].[NH2-].[Pt+2] [Carboplatin] + CC[C@H](NC(=O)[C@H](C)NC)C(=O)N1C[C@@H](O)C[C@H]1Cc1c(-c2[nH]c3cc(F)ccc3c2C[C@@H]2C[C@H](O)CN2C(=O)[C@H](CC)NC(=O)[C@H](C)NC)[nH]c2cc(F)ccc12 [Birinapant]
cancer cell viability [%]
Conditions	partner drug concentration 0 nM	partner drug concentration 0.1 nM	partner drug concentration 1 nM	partner drug concentration 10 nM	partner drug concentration 100 nM	partner drug concentration 1000 nM
carboplatin concentration 10 nM, co-cultured fibroblast: 030F	95.1	97.5	93.4	82.9	81.5	84.3
carboplatin concentration 10 nM, co-cultured fibroblast: WI38	93.7	94.4	87.7	85	80.4	77.7
carboplatin concentration 10 nM, co-cultured fibroblast: none (monoculture)	101	93.7	90.3	79.5	73.8	67.6
carboplatin concentration 100 nM, co-cultured fibroblast: 030F	95.5	92	94.7	95.6	84.5	85.6
carboplatin concentration 100 nM, co-cultured fibroblast: WI38	91.6	88.5	90.5	98.4	86.1	82.2
carboplatin concentration 100 nM, co-cultured fibroblast: none (monoculture)	95.7	89.2	91.7	97.3	66.7	67.3
carboplatin concentration 1000 nM, co-cultured fibroblast: 030F	91.6	92.2	100	91.7	82.9	87.1
carboplatin concentration 1000 nM, co-cultured fibroblast: WI38	94.4	99.2	98.2	97.8	88.5	77.5
carboplatin concentration 1000 nM, co-cultured fibroblast: none (monoculture)	102	95	90.7	90.3	74.3	61
carboplatin concentration 1e+05 nM, co-cultured fibroblast: 030F	44.4	50.4	60.3	52.9	40.4	54.9
carboplatin concentration 1e+05 nM, co-cultured fibroblast: WI38	31.1	41.9	48	43.7	36.4	44.2
carboplatin concentration 1e+05 nM, co-cultured fibroblast: none (monoculture)	26.6	33.6	38.4	37.9	18.6	24.4
carboplatin concentration 10000 nM, co-cultured fibroblast: 030F	51.7	80.8	88.2	88.8	72.4	71.7
carboplatin concentration 10000 nM, co-cultured fibroblast: WI38	40.7	80	83.2	91.4	74.1	69.9
carboplatin concentration 10000 nM, co-cultured fibroblast: none (monoculture)	23.9	95.4	72.3	84.6	57.4	51.8

O=C(O)C1(C(=O)O)CCC1.[NH2-].[NH2-].[Pt+2] [Carboplatin] + O=C(CCCCCCC(=O)Nc1ccccc1)NO [Vorinostat]
cancer cell viability [%]
Conditions	partner drug concentration 0 nM	partner drug concentration 1 nM	partner drug concentration 10 nM	partner drug concentration 100 nM	partner drug concentration 1000 nM	partner drug concentration 10000 nM
carboplatin concentration 10 nM, co-cultured fibroblast: 030F	95.1	107	95.5	77.5	36.9	4.67
carboplatin concentration 10 nM, co-cultured fibroblast: WI38	93.7	107	97.6	70	26.5	5.05
carboplatin concentration 10 nM, co-cultured fibroblast: none (monoculture)	101	111	101	67.6	31.1	-0.479
carboplatin concentration 100 nM, co-cultured fibroblast: 030F	95.5	106	102	75.9	28.8	3.53
carboplatin concentration 100 nM, co-cultured fibroblast: WI38	91.6	101	91.2	63.2	21	5.14
carboplatin concentration 100 nM, co-cultured fibroblast: none (monoculture)	95.7	101	92.7	63.3	24.3	0.0805
carboplatin concentration 1000 nM, co-cultured fibroblast: 030F	91.6	85.7	89.1	58.1	31.1	6.6
carboplatin concentration 1000 nM, co-cultured fibroblast: WI38	94.4	88.8	88.6	52	18.7	5.75
carboplatin concentration 1000 nM, co-cultured fibroblast: none (monoculture)	102	103	91.6	54.2	20.8	1.21
carboplatin concentration 1e+05 nM, co-cultured fibroblast: 030F	44.4	47.7	47.7	38	39	1.97
carboplatin concentration 1e+05 nM, co-cultured fibroblast: WI38	31.1	39.3	39.4	30.1	20.6	0.366
carboplatin concentration 1e+05 nM, co-cultured fibroblast: none (monoculture)	26.6	37.6	37	22.8	21.3	-3.77
carboplatin concentration 10000 nM, co-cultured fibroblast: 030F	51.7	72.2	71.1	55.5	45	3.59
carboplatin concentration 10000 nM, co-cultured fibroblast: WI38	40.7	72	68	46.1	28.8	4.43
carboplatin concentration 10000 nM, co-cultured fibroblast: none (monoculture)	23.9	80.8	62.8	49.1	27.5	-0.104
